Data: a compilation of properties of binary mixtures (doi:10.1080/01932691.2021.1974876)

Assay: xn = mol fraction of the nth substance listed
Conditions: 100 kPa

## CO + CC[n+]1ccn(C)c1.N#C[S-]
293.15 K, x2 = 0
  viscosity: 0.59 mPa·s
303.15 K, x2 = 0
  viscosity: 0.51 mPa·s
308.15 K, x2 = 0
  viscosity: 0.48 mPa·s
313.15 K, x2 = 0
  viscosity: 0.45 mPa·s
323.15 K, x2 = 0
  viscosity: 0.41 mPa·s

## CC[n+]1ccn(C)c1.N#C[S-] + CO
293.15 K, x1 = 0.0988
  electrical conductivity: 1.83 S/m
  viscosity: 2.9 mPa·s
293.15 K, x1 = 0.1966
  electrical conductivity: 2.24 S/m
  viscosity: 5 mPa·s
293.15 K, x1 = 0.3005
  electrical conductivity: 2.25 S/m
  viscosity: 7.5 mPa·s
293.15 K, x1 = 0.3859
  electrical conductivity: 2.16 S/m
  viscosity: 9.5 mPa·s
293.15 K, x1 = 0.5006
  electrical conductivity: 2 S/m
  viscosity: 12.3 mPa·s
293.15 K, x1 = 0.5972
  electrical conductivity: 1.87 S/m
  viscosity: 14.9 mPa·s
293.15 K, x1 = 0.6996
  electrical conductivity: 1.76 S/m
  viscosity: 18 mPa·s
293.15 K, x1 = 0.804
  electrical conductivity: 1.68 S/m
  viscosity: 21 mPa·s
293.15 K, x1 = 0.8997
  electrical conductivity: 1.64 S/m
  viscosity: 24 mPa·s
293.15 K, x1 = 1
  electrical conductivity: 1.64 S/m
  viscosity: 27 mPa·s
298.15 K, x1 = 0.0988
  electrical conductivity: 2.08 S/m
  viscosity: 2.5 mPa·s
298.15 K, x1 = 0.1966
  electrical conductivity: 2.44 S/m
  viscosity: 4.4 mPa·s
298.15 K, x1 = 0.3005
  electrical conductivity: 2.45 S/m
  viscosity: 6.4 mPa·s
298.15 K, x1 = 0.3859
  electrical conductivity: 2.36 S/m
  viscosity: 8.1 mPa·s
298.15 K, x1 = 0.5006
  electrical conductivity: 2.2 S/m
  viscosity: 10.6 mPa·s
298.15 K, x1 = 0.6996
  electrical conductivity: 1.96 S/m
  viscosity: 15.2 mPa·s
298.15 K, x1 = 0.804
  electrical conductivity: 1.88 S/m
  viscosity: 18 mPa·s
298.15 K, x1 = 0.8997
  electrical conductivity: 1.84 S/m
  viscosity: 20 mPa·s
298.15 K, x1 = 1
  electrical conductivity: 1.83 S/m
  viscosity: 23 mPa·s
303.15 K, x1 = 0.0988
  electrical conductivity: 2.34 S/m
  viscosity: 2.1 mPa·s
303.15 K, x1 = 0.1966
  electrical conductivity: 2.67 S/m
  viscosity: 3.8 mPa·s
303.15 K, x1 = 0.3005
  electrical conductivity: 2.66 S/m
  viscosity: 5.5 mPa·s
303.15 K, x1 = 0.5006
  electrical conductivity: 2.42 S/m
  viscosity: 9.1 mPa·s
303.15 K, x1 = 0.5972
  electrical conductivity: 2.29 S/m
  viscosity: 11 mPa·s
303.15 K, x1 = 0.6996
  electrical conductivity: 2.18 S/m
  viscosity: 13.1 mPa·s
303.15 K, x1 = 0.804
  electrical conductivity: 2.1 S/m
  viscosity: 15.3 mPa·s
303.15 K, x1 = 0.8997
  electrical conductivity: 2.05 S/m
  viscosity: 18 mPa·s
308.15 K, x1 = 0.1966
  electrical conductivity: 2.89 S/m
  viscosity: 3.3 mPa·s
308.15 K, x1 = 0.3005
  electrical conductivity: 2.88 S/m
  viscosity: 4.8 mPa·s
308.15 K, x1 = 0.3859
  electrical conductivity: 2.81 S/m
  viscosity: 6.1 mPa·s
308.15 K, x1 = 0.5972
  electrical conductivity: 2.52 S/m
  viscosity: 9.6 mPa·s
308.15 K, x1 = 0.6996
  electrical conductivity: 2.41 S/m
  viscosity: 11.4 mPa·s
308.15 K, x1 = 0.804
  electrical conductivity: 2.33 S/m
  viscosity: 13.4 mPa·s
308.15 K, x1 = 0.8997
  electrical conductivity: 2.29 S/m
  viscosity: 15.5 mPa·s
313.15 K, x1 = 0.0988
  electrical conductivity: 2.82 S/m
  viscosity: 1.7 mPa·s
313.15 K, x1 = 0.1966
  electrical conductivity: 3.12 S/m
  viscosity: 2.9 mPa·s
313.15 K, x1 = 0.3005
  electrical conductivity: 3.12 S/m
  viscosity: 4.2 mPa·s
313.15 K, x1 = 0.3859
  electrical conductivity: 3.04 S/m
  viscosity: 5.3 mPa·s
313.15 K, x1 = 0.5006
  electrical conductivity: 2.89 S/m
  viscosity: 6.9 mPa·s
313.15 K, x1 = 0.5972
  electrical conductivity: 2.77 S/m
  viscosity: 8.3 mPa·s
313.15 K, x1 = 0.6996
  electrical conductivity: 2.66 S/m
  viscosity: 10 mPa·s
313.15 K, x1 = 0.804
  electrical conductivity: 2.58 S/m
  viscosity: 11.7 mPa·s
313.15 K, x1 = 0.8997
  electrical conductivity: 2.54 S/m
  viscosity: 13.5 mPa·s
313.15 K, x1 = 1
  electrical conductivity: 2.52 S/m
  viscosity: 15.4 mPa·s
318.15 K, x1 = 0.0988
  electrical conductivity: 3.06 S/m
  viscosity: 1.5 mPa·s
318.15 K, x1 = 0.1966
  electrical conductivity: 3.4 S/m
  viscosity: 2.5 mPa·s
318.15 K, x1 = 0.3005
  electrical conductivity: 3.4 S/m
  viscosity: 3.6 mPa·s
318.15 K, x1 = 0.3859
  electrical conductivity: 3.31 S/m
  viscosity: 4.6 mPa·s
318.15 K, x1 = 0.5006
  electrical conductivity: 3.15 S/m
  viscosity: 6 mPa·s
318.15 K, x1 = 0.5972
  electrical conductivity: 3.04 S/m
  viscosity: 7.3 mPa·s
318.15 K, x1 = 0.6996
  electrical conductivity: 2.93 S/m
  viscosity: 8.8 mPa·s
318.15 K, x1 = 0.804
  electrical conductivity: 2.85 S/m
  viscosity: 10.3 mPa·s
318.15 K, x1 = 0.8997
  electrical conductivity: 2.81 S/m
  viscosity: 11.9 mPa·s
318.15 K, x1 = 1
  electrical conductivity: 2.79 S/m
  viscosity: 13.6 mPa·s
323.15 K, x1 = 0.0988
  electrical conductivity: 3.31 S/m
  viscosity: 1.35 mPa·s
323.15 K, x1 = 0.3859
  electrical conductivity: 3.6 S/m
  viscosity: 4 mPa·s
323.15 K, x1 = 0.5006
  electrical conductivity: 3.4 S/m
  viscosity: 5.3 mPa·s
323.15 K, x1 = 0.5972
  electrical conductivity: 3.3 S/m
  viscosity: 6.4 mPa·s
323.15 K, x1 = 0.6996
  electrical conductivity: 3.22 S/m
  viscosity: 7.7 mPa·s
